Columns and labels:
COX-2 = biological target: T1, COX-2 (Homo sapiens, UniProt P35354); settings: known; cited from earlier work
T1 sequence (P35354 18-604): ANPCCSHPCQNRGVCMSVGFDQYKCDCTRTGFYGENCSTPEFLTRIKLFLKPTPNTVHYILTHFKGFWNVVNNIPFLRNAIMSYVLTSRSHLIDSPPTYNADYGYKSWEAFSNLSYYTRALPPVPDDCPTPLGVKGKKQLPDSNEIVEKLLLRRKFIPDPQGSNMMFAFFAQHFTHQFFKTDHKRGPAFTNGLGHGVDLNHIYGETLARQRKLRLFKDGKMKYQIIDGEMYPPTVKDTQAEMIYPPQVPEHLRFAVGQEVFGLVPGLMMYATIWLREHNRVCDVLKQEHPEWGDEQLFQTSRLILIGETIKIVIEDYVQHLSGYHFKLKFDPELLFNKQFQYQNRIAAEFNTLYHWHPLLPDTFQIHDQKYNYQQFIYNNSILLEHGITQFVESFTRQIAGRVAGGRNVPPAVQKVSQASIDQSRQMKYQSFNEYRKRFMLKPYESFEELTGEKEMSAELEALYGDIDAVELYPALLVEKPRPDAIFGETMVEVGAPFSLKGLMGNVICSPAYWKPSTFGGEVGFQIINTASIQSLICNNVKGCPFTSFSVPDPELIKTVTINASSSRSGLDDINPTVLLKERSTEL

COX-1 = COX-1 (Homo sapiens, UniProt P23219); settings: known; cited from earlier work
COX-1, sequence (P23219 24-599): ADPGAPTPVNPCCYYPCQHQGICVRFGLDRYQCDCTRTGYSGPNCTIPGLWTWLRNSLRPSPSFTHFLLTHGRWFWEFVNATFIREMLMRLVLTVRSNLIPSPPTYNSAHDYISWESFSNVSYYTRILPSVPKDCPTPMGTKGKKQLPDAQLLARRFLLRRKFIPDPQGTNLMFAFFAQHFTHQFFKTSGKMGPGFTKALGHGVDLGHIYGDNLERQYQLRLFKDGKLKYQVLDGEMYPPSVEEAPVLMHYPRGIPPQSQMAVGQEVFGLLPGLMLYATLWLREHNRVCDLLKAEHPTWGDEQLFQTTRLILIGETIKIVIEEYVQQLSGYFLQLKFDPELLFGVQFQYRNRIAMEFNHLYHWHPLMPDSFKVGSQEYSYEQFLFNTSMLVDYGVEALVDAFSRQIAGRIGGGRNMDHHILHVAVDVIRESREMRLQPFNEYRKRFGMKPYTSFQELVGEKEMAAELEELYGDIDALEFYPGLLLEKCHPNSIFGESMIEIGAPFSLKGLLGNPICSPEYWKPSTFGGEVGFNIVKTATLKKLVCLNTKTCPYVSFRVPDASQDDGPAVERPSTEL

[1] = system: BRMEC (Bovine Retinal Microvascular Endothelial Cell); test: VEGF-induced BRMEC capillary tube formation; type: cell-based
Method: A mixture of 8 vol of Vitrogen 100 (Cohesion; Palo Alto, Calif.), 1 vol. of 0.2N NaOH, and 1 vol. of 10× RPMI-1640 medium containing 5 μg/ml fibronectin and 5 μg/ml laminin was prepared and 400 μl was added to each well of a 24-well plate. After incubating for 3 hrs at 37° C. to solidify the gel, 10^4 BRMEC were added to each well and incubated in growth medium for 3 days. Then the medium was carefully aspirated and 200 μl of the gel solution was layered on top of the cells and incubated at 37° C. for 1 hr. Following addition of growth medium for 24 hrs, 2 ml of test medium containing serum-free (SF) medium plus VEGF or SF medium plus VEGF and AL06295A were added to each well. The gels were assessed 24 hrs later.
For quantitative analysis, six fields per treatment group were chosen from areas containing tubes; seven wells were used for each treatment. The lengths of the tubes were measured in digitized images, and the data are expressed in FIG. 2 as the total length per field of view in μm.

[2] = system: BRMEC (Bovine Retinal Microvascular Endothelial Cell); test: VEGF-induced BRMEC proliferation, modified MTT assay; type: cell-based
Method: VEGF-induced BRMEC proliferation was measured using a modified MTT assay, BRMEC were plated at 3×10^3 onto a fibronectin/hyaluronic acid matrix in 96-well plates (Coming). Growth medium was added for two days, followed by serum free medium (SFM) overnight, then by test medium containing 0 or 25 ng/ml VEGF in 100 μl of SFM. After 24 hours at 37° C./5%CO2, 25 μl of MTT (3-(4,5-dimethylthiazol-2-yl)-2,5-diphenyl tetrazolium bromide) was added to each well and incubated for 4 hours. 100 μl of lysis buffer (20%SDS in 50:50 DMF:H2O+2.0% acetic acid and 0.05%HCl) was then added to each well, and the plates were incubated overnight at 37° C. and read (SPECTRAmax 190, Molecular Devices; Sunnyvale, Calif.) at 570 nm. For experiments utilizing AL06295, 25 ng/ml VEGF was combined with the compound at 0.1, 0.3, 1.0 or 3 μM.

choroidal NV = choroidal NV in a mouse model, topical administration; type: in vivo; settings: previous findings
[3] = dose-response fashion, bovine retinal microvascular endothelial cell assay

Molecule	activity of COX-2 enzyme (COX-2)	activity of COX-1 enzyme (COX-1)	VEGF induced capillary tube formation in BRMECs (total tube length per field of view) ([1]; all doses, SF medium plus VEGF, assessed 24 hrs later, FIG. 2)	VEGF-induced capillary tube formation [1, 3]	VEGF induced BRMEC proliferation ([2]; 1 and 3 μM doses, 25 ng/ml VEGF, 24 hours, FIG. 1)	VEGF-induced cell proliferation [2, 3]	choroidal NV (choroidal NV)
2-amino-3-benzoylbenzene acetic acid [amfenac]	potently inhibit	potently inhibit	significantly and potently inhibit	inhibit	significantly reduce	inhibit	–
NC(=O)Cc1cccc(C(=O)c2ccccc2)c1N [nepafenac]	–	–	–	–	–	–	inhibited

Source: patent publication US20030207941A1, “Method of treating vascular endothelial growth factor mediated vascular disorders” (priority 2002, published 2003)
